Data as given in US20180002319A1, “MACROCYCLIC PICOLINAMIDE COMPOUNDS WITH FUNGICIDAL ACTIVITY” (DOW AGROSCIENCES LLC, priority 2014, published 2018).
Where two headings read alike, the source gives them in different places.

How the values were obtained:
Zymoseptoria tritici = test: Leaf Blotch of Wheat (SEPTTR) fungicidal activity; assay type: in vivo; settings: for pest or weed control at 121.5 g/ha: Low Volume application, 121.5 g/H
Description: Example A: Evaluation of Fungicidal Activity: Leaf Blotch of Wheat (Zymoseptoria tritici; Bayer Code […]) Technical grades of materials were dissolved in acetone, which were then mixed with nine volumes of H2O containing 110 ppm Triton X-100. The fungicide solutions were applied onto wheat seedlings using an automated booth sprayer to run-off. All sprayed plants were allowed to air dry prior to further handling. All fungicides were evaluated using the aforementioned method for their activity vs. all target diseases, unless stated otherwise. Wheat leaf blotch and brown rust activity were also evaluated using track spray applications, in which case the fungicides were formulated as EC formulations, containing 0.1% Trycol 5941 in the spray solutions. Wheat plants (variety Yuma) were grown from seed in a greenhouse in 50% mineral soil/50% soil-less Metro mix until the first leaf was fully emerged, with 7-10 seedlings per pot. These plants were inoculated with an aqueous spore suspension of Zymoseptoria tritici either prior to or after fungicide treatments. After inoculation the plants were kept in 100% relative humidity (one day in a dark dew chamber followed by two to three days in a lighted dew chamber at 20° C.) to permit spores to germinate and infect the leaf. The plants were then transferred to a greenhouse set at 20° C. for disease to develop. When disease symptoms were fully expressed on the 1st leaves of untreated plants, infection levels were assessed on a scale of 0 to 100 percent disease severity. Percent disease control was calculated using the ratio of disease severity on treated plants relative to untreated plants.

Puccinia triticina = test: Wheat Brown Rust (PUCCRT) fungicidal activity; assay type: in vivo; settings: for pest or weed control at 100 ppm: High Volume application; for pest or weed control at 121.5 g/ha: Low Volume application, 121.5 g/H
Description: Technical grades of materials were dissolved in acetone, which were then mixed with nine volumes of H2O containing 110 ppm Triton X-100. The fungicide solutions were applied onto wheat seedlings using an automated booth sprayer to run-off. All sprayed plants were allowed to air dry prior to further handling. All fungicides were evaluated using the aforementioned method for their activity vs. all target diseases, unless stated otherwise. Wheat leaf blotch and brown rust activity were also evaluated using track spray applications, in which case the fungicides were formulated as EC formulations, containing 0.1% Trycol 5941 in the spray solutions. Wheat plants (variety Yuma) were grown from seed in a greenhouse in 50% mineral soil/50% soil-less Metro mix until the first leaf was fully emerged, with 7-10 seedlings per pot. These plants were inoculated with an aqueous spore suspension of Zymoseptoria tritici either prior to or after fungicide treatments. After inoculation the plants were kept in 100% relative humidity (one day in a dark dew chamber followed by two to three days in a lighted dew chamber at 20° C.) to permit spores to germinate and infect the leaf. The plants were then transferred to a greenhouse set at 20° C. for disease to develop. When disease symptoms were fully expressed on the 1st leaves of untreated plants, infection levels were assessed on a scale of 0 to 100 percent disease severity. Percent disease control was calculated using the ratio of disease severity on treated plants relative to untreated plants. Example B: Evaluation of Fungicidal Activity: Wheat Brown Rust (Puccinia triticina; Bayer Code PUCCRT) Wheat plants (variety Yuma) were grown from seed in a greenhouse in 50% mineral soil/50% soil-less Metro mix until the first leaf was fully emerged, with 7-10 seedlings per pot. These plants were inoculated with an aqueous spore suspension of Puccinia triticina either prior to or after fungicide treatments. After inoculation the plants were kept in a dark dew room at 22° C. with 100% relative humidity overnight to permit spores to germinate and infect the leaf. The plants were then transferred to a greenhouse set at 24° C. for disease to develop. Fungicide formulation, application and disease assessment followed the procedures as described in the Example A.

[1] = 24 h, High Volume application, 100 ppm, wheat leaf blotch, 1 day protectant, read-out: SEPTTR disease control, 1DP (1 Day Protectant)
[2] = 72 h, High Volume application, 100 ppm, wheat leaf blotch, 3 day curative, read-out: SEPTTR disease control, 3DC (3 Day Curative)
[3] = 24 h, 1 day protectant, read-out: PUCCRT disease control, 1DP (1 Day Protectant)
[4] = 72 h, 3 day curative, read-out: PUCCRT disease control, 3DC (3 Day Curative)
[5] = 24 h, wheat leaf blotch, 1 day protectant, read-out: SEPTTR disease control, 1DP (1 Day Protectant)
[6] = 72 h, wheat leaf blotch, 3 day curative, read-out: SEPTTR disease control, 3DC (3 Day Curative)

Structure (SMILES) | pest or weed control at 100 ppm (Zymoseptoria tritici; [1]) | pest or weed control at 100 ppm (Zymoseptoria tritici; [2]) | pest or weed control at 100 ppm (Puccinia triticina; [3]) | pest or weed control at 100 ppm (Puccinia triticina; [4]) | pest or weed control at 121.5 g/ha (Zymoseptoria tritici; [5]) | pest or weed control at 121.5 g/ha (Zymoseptoria tritici; [6]) | pest or weed control at 121.5 g/ha (Puccinia triticina; [3]) | pest or weed control at 121.5 g/ha (Puccinia triticina; [4]) | pest or weed control at 100 ppm (Zymoseptoria tritici; 24 h, read-out: SEPTTR disease control, 1DP (1 Day Protectant)) | pest or weed control at 100 ppm (Zymoseptoria tritici; 72 h, read-out: SEPTTR disease control, 3DC (3 Day Curative))
CCCCO[C@H]1CCOC[C@H](NC(=O)c2nccc(OC)c2O)C(=O)O[C@@H](C)[C@@H]1OC(=O)C(C)C [Compound 83] | < 80% | > 80% | > 80% | > 80% | – | – | – | – | – | –
CCCO[C@H]1CCCC[C@H](NC(=O)c2nccc(OC)c2OC(C)=O)C(=O)O[C@@H](C)[C@@H]1Oc1ccccc1 [Compound 26] | – | – | – | – | > 80% | > 80% | > 80% | > 80% | – | –
C=CCO[C@@H]1[C@@H](CC2CCCC2)CCCC[C@H](NC(=O)c2nccc(OC)c2O)C(=O)O[C@H]1C [Compound 122] | < 80% | < 80% | < 80% | – | – | – | – | – | – | –
COc1ccnc(C(=O)N[C@H]2CCCC[C@@H]3OC(C)(C)O[C@H]3[C@H](C)OC2=O)c1O [Compound 104] | < 80% | < 80% | > 80% | > 80% | – | – | – | – | – | –
C=CCO[C@@H]1[C@@H](CC2CCCC2)CCCC[C@H](NC(=O)c2nccc(OC)c2OCOC(C)=O)C(=O)O[C@H]1C [Compound 53] | – | – | – | – | – | < 80% | < 80% | – | – | –
CCC[C@H]1CCCC[C@H](NC(=O)c2nccc(OC)c2O)C(=O)O[C@@H](C)[C@@H]1OCC(C)C [compound 105, 3-hydroxy-N-((3S,8S,9R,10S)-9-isobutoxy-10-methyl-2-oxo-8-propyloxecan-3-yl)-4-methoxypicolinamide] | – | – | < 80% | < 80% | – | – | – | – | < 80% | < 80%
CC[C@H]1CCOC[C@H](NC(=O)c2nccc(OC)c2OCOC(C)=O)C(=O)O[C@@H](C)[C@@H]1Oc1ccccc1 [Compound 69] | – | – | – | – | > 80% | > 80% | > 80% | > 80% | – | –
C[C@@H]1OC(=O)[C@@H](NC(=O)c2ncccc2O)CCCC[C@H](CC2CCCC2)[C@H]1Oc1ccccc1 [Compound 120] | < 80% | > 80% | > 80% | – | – | – | – | – | – | –
COc1ccnc(C(=O)N[C@H]2CCOC[C@H](OCC(C)C)[C@@H](OCC(C)C)[C@H](C)OC2=O)c1O [Compound 116] | – | < 80% | < 80% | < 80% | – | – | – | – | – | –
COc1ccnc(C(=O)N[C@H]2COCC[C@H](Cc3ccc(F)cc3)[C@@H](OC(=O)C(C)C)[C@H](C)OC2=O)c1OCOC(C)=O [Compound 76] | – | – | – | – | > 80% | > 80% | > 80% | > 80% | – | –
COc1ccnc(C(=O)N[C@H]2CCCC[C@@H]3OC(C)(C)O[C@H]3[C@H](C)OC2=O)c1OC(C)=O [Compound 29] | – | – | – | – | < 80% | > 80% | > 80% | > 80% | – | –
CCCO[C@@H]1[C@@H](CC2CCCC2)CCCC[C@H](NC(=O)c2nccc(OC)c2OC(C)=O)C(=O)O[C@H]1C [Compound 58] | – | – | – | – | < 80% | < 80% | > 80% | < 80% | – | –
COc1ccnc(C(=O)N[C@H]2CCCC[C@H](CC3CCCC3)[C@@H](OC(=O)C(C)C)[C@H](C)OC2=O)c1OCOC(C)=O [Compound 54] | – | – | – | – | > 80% | – | > 80% | < 80% | – | –
COc1ccnc(C(=O)N[C@H]2CCCC[C@H](OC)[C@@H](OCC(C)C)[C@H](C)OC2=O)c1O [Compound 92] | > 80% | > 80% | > 80% | > 80% | – | – | – | – | – | –
COc1ccnc(C(=O)N[C@H]2CCOC[C@H](OC(=O)C(C)C)[C@@H](Oc3ccccc3)[C@H](C)OC2=O)c1O [Compound 117] | > 80% | < 80% | < 80% | – | – | – | – | – | – | –
COc1ccnc(C(=O)N[C@H]2CCCC[C@H](Cc3ccccc3)[C@@H](Oc3ccccc3)[C@H](C)OC2=O)c1OC(C)=O [Compound 64] | – | – | – | – | > 80% | > 80% | > 80% | < 80% | – | –
CC[C@H]1CCOC[C@H](NC(=O)c2nccc(OC)c2OCOC(C)=O)C(=O)O[C@@H](C)[C@@H]1OC(=O)C1CC1 [Compound 79] | – | – | – | – | > 80% | – | > 80% | > 80% | – | –
COc1ccnc(C(=O)N[C@H]2CCCC[C@H](OC)[C@@H](Oc3ccccc3)[C@H](C)OC2=O)c1O [Compound 91] | > 80% | > 80% | > 80% | > 80% | – | – | – | – | – | –
COc1ccc(CO[C@H]2[C@H](C)OC(=O)[C@@H](NC(=O)c3nccc(OC)c3O)CCOC[C@@H]2OCc2ccc(OC)cc2)cc1 [Compound 106] | > 80% | < 80% | > 80% | – | – | – | – | – | – | –
COc1ccnc(C(=O)N[C@H]2CCCC[C@H](Cc3ccccc3)[C@@H](Oc3ccccc3)[C@H](C)OC2=O)c1O [Compound 128] | > 80% | < 80% | > 80% | > 80% | – | – | – | – | – | –
COc1ccnc(C(=O)N[C@H]2CCCC[C@H](Cc3ccccc3)[C@@H](OC(=O)C(C)C)[C@H](C)OC2=O)c1OCOC(C)=O [Compound 60] | – | – | – | – | > 80% | > 80% | > 80% | > 80% | – | –
COc1ccnc(C(=O)N[C@H]2CCOC[C@H](Oc3ccccc3)[C@@H](OCC(C)C)[C@H](C)OC2=O)c1OCOC(C)=O [Compound 46] | – | – | – | – | > 80% | < 80% | > 80% | < 80% | – | –
CCCCO[C@H]1CCOC[C@H](NC(=O)c2nccc(OC)c2O)C(=O)O[C@@H](C)[C@@H]1OC(=O)c1ccccc1 [Compound 84] | < 80% | > 80% | > 80% | > 80% | – | – | – | – | – | –
COc1ccc(CO[C@H]2[C@H](C)OC(=O)[C@@H](NC(=O)c3nccc(OC)c3OCOC(C)=O)CCOC[C@@H]2OCc2ccc(OC)cc2)cc1 [Compound 32] | – | – | – | – | – | < 80% | – | < 80% | – | –
COc1ccnc(C(=O)N[C@H]2CCCC[C@H](CC3CCCC3)[C@@H](Oc3ccccc3)[C@H](C)OC2=O)c1OC(C)=O [Compound 52] | – | – | – | – | > 80% | – | > 80% | < 80% | – | –
COc1ccnc(C(=O)N[C@H]2CCCC[C@H](Cc3ccccc3)[C@@H](OCC(C)C)[C@H](C)OC2=O)c1OCOC(C)=O [Compound 24] | – | – | – | – | > 80% | > 80% | > 80% | < 80% | – | –
